According to PubChem BioAssay AID248 (DTP/NCI, 2004):
Toxic doses and inconclusive results are not listed.

Test system: L1210 leukemia ip in BDF1 mice, survival T/C
Assay: NCI In Vivo Anticancer Drug Screen. Data for tumor model L1210 Leukemia (intraperitoneal) in B6D2F1 (BDF1) mice
Settings: endpoint: mean survival time, higher = longer survival
Outline: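 Mice bearing the transplanted tumor received compound or vehicle. Survival of the treated group was divided by that of the vehicle-treated control group to give the ratio.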

[1] = dose: 40.0 mg/kg/injection, schedule: Q01DX001 (ip), vehicle: saline
[2] = dose: 50.0 mg/kg/injection, schedule: Q01DX009 (ip), vehicle: saline
[3] = dose: 400.0 mg/kg/injection, schedule: Q01DX001 (ip), vehicle: saline
[4] = dose: 100.0 mg/kg/injection, schedule: Q01DX009 (ip), vehicle: saline with Tween-80
[5] = dose: 200.0 mg/kg/injection, schedule: Q01DX009 (ip), vehicle: saline with Tween-80
[6] = dose: 100.0 mg/kg/injection, schedule: Q04DX002 (ip), vehicle: Klucel (hydroxypropylcellulose) (HPC)
[7] = dose: 200.0 mg/kg/injection, schedule: Q04DX002 (ip), vehicle: Klucel (hydroxypropylcellulose) (HPC)
[8] = dose: 400.0 mg/kg/injection, schedule: Q04DX002 (ip), vehicle: Klucel (hydroxypropylcellulose) (HPC)
[9] = dose: 50.0 mg/kg/injection, schedule: Q01DX001 (ip), vehicle: saline
[10] = dose: 100.0 mg/kg/injection, schedule: Q01DX001 (ip), vehicle: saline
[11] = dose: 200.0 mg/kg/injection, schedule: Q01DX001 (ip), vehicle: saline

**Q.** Which results are given for `CCCC(=O)OCC1OC(n2cnc3c(=S)nc[nH]c32)C(OC(=O)CCC)C1OC(=O)CCC` (centres undefined)?
**A.** T/C (dose: 3.12 mg/kg/injection, schedule: Q04DX003 (ip), vehicle: saline): 97 % of control; T/C (dose: 6.25 mg/kg/injection, schedule: Q01DX009 (ip), vehicle: saline): 112 % of control; T/C (dose: 6.25 mg/kg/injection, schedule: Q01DX Z (ip), vehicle: other): 117 % of control; T/C (dose: 6.25 mg/kg/injection, schedule: Q04DX003 (ip), vehicle: saline): 113 % of control; T/C (dose: 8.36 mg/kg/injection, schedule: Q01DX009 (ip), vehicle: saline with Tween-80): 122 % of control; T/C (dose: 8.36 mg/kg/injection, schedule: Q04DX003 (ip), vehicle: saline with Tween-80): 107 % of control; T/C (dose: 12.5 mg/kg/injection, schedule: Q01DX009 (ip), vehicle: saline): 122 % of control; T/C (dose: 12.5 mg/kg/injection, schedule: Q04DX003 (ip), vehicle: saline with Tween-80): 114 % of control; T/C (dose: 12.5 mg/kg/injection, schedule: Q04DX003 (ip), vehicle: saline): 118 % of control; T/C (dose: 25.0 mg/kg/injection, schedule: Q01DX Z (ip), vehicle: other): 153 % of control; T/C (dose: 25.0 mg/kg/injection, schedule: Q04DX003 (ip), vehicle: saline): 121 % of control; T/C (dose: 26.0 mg/kg/injection, schedule: Q01DX001 (ip), vehicle: saline): 121 % of control; T/C [1]: 121 % of control; T/C [2]: 164 % of control; T/C (dose: 50.0 mg/kg/injection, schedule: Q01DX Z (ip), vehicle: other): 89 % of control; T/C (dose: 200.0 mg/kg/injection, schedule: Q04DX003 (ip), vehicle: saline): 123 % of control; T/C (dose: 300.0 mg/kg/injection, schedule: Q01DX001 (ip), vehicle: saline): 151 % of control; T/C [3]: 121 % of control; T/C (dose: 400.0 mg/kg/injection, schedule: Q01DX009 (ip), vehicle: saline): 100 % of control; T/C (dose: 400.0 mg/kg/injection, schedule: Q04DX003 (ip), vehicle: saline): 105 % of control

**Q.** With `CN(C)/C=C1\NC(=S)NC1=O` as the compound, how does the T/C [4] read?
**A.** The T/C was 95 % of control.

**Q.** What about the T/C [5] of the same compound?
**A.** The T/C was 95 % of control.

**Q.** What about the T/C (dose: 400.0 mg/kg/injection, schedule: Q01DX009 (ip), vehicle: saline with Tween-80) of the same compound?
**A.** The T/C was 91 % of control.

**Q.** Which T/C (dose: 100.0 mg/kg/injection, schedule: Q04DX003 (ip), vehicle: saline with Tween-80) does the source give for `N\C([S-])=N/N=C\C(=N/N=C(\N)[S-])C(O)C(O)C(O)CO.[Ni+2]` (centres undefined) here?
**A.** Its T/C is 96 % of control.

**Q.** What about the T/C (dose: 200.0 mg/kg/injection, schedule: Q04DX003 (ip), vehicle: saline with Tween-80) of the same compound?
**A.** The T/C was 94 % of control.

**Q.** And the T/C (dose: 400.0 mg/kg/injection, schedule: Q04DX003 (ip), vehicle: saline with Tween-80)?
**A.** Its T/C is 91 % of control.

**Q.** `CC(O)C[N+](=O)[O-]` (centres undefined) was tested. Which T/C [2] did it give?
**A.** Its T/C is 103 % of control.

**Q.** And the T/C (dose: 100.0 mg/kg/injection, schedule: Q01DX009 (ip), vehicle: saline)?
**A.** The T/C was 98 % of control.

**Q.** And the T/C (dose: 200.0 mg/kg/injection, schedule: Q01DX009 (ip), vehicle: saline)?
**A.** Its T/C is 106 % of control.

**Q.** What does the source list for `O=C(Oc1ccc(S(=O)(=O)F)cc1Cl)c1ccc([N+](=O)[O-])cc1`?
**A.** T/C [6]: 118 % of control; T/C [7]: 96 % of control; T/C [8]: 96 % of control

**Q.** With `COc1cc(C=Nc2ccc(C(=O)O)c(O)c2)ccc1N(CCCl)CCCl` as the compound, how does the T/C (dose: 11.0 mg/kg/injection, schedule: Q01DX001 (ip), vehicle: carboxymethylcellulose (CMC)) read?
**A.** The T/C was 118 % of control.

**Q.** `O=C1OC(/C=C\c2ccccc2)=NC/1=C\c1cc(Cl)cc(Cl)c1O` was tested. Which T/C [6] did it give?
**A.** Its T/C is 108 % of control.

**Q.** And the T/C [7]?
**A.** Its T/C is 112 % of control.

**Q.** What about the T/C [8] of the same compound?
**A.** The T/C was 108 % of control.

**Q.** How did the T/C [9] turn out when `O=C(CCCC(=O)NNC(=S)Nc1ccccc1Cl)NNC(=S)Nc1ccccc1Cl` was run?
**A.** Its T/C is 96 % of control.

**Q.** What about the T/C [10] of the same compound?
**A.** The T/C was 96 % of control.

**Q.** What about the T/C [11] of the same compound?
**A.** The T/C was 93 % of control.

**Q.** And the T/C [3]?
**A.** Its T/C is 93 % of control.

**Q.** How did the T/C (dose: 60.0 mg/kg/injection, schedule: Q01DX Z (oral), vehicle: methylcellulose (MC)) turn out when `NC(N)=N/N=C/CN1C(=O)c2ccccc2C1=O` was run?
**A.** Its T/C is 104 % of control.

**Q.** And the T/C (dose: 120.0 mg/kg/injection, schedule: Q01DX Z (oral), vehicle: methylcellulose (MC))?
**A.** The T/C was 94 % of control.

**Q.** And the T/C (dose: 240.0 mg/kg/injection, schedule: Q01DX Z (oral), vehicle: methylcellulose (MC))?
**A.** The T/C was 109 % of control.

**Q.** What about the T/C (dose: 480.0 mg/kg/injection, schedule: Q01DX Z (oral), vehicle: methylcellulose (MC)) of the same compound?
**A.** Its T/C is 98 % of control.

**Q.** With `CCN1CCN(CC)C1(Br)C1(Br)N(CC)CCN1CC` as the compound, how does the T/C (dose: 75.0 mg/kg/injection, schedule: Q04DX002 (ip), vehicle: saline with Tween-80) read?
**A.** Its T/C is 91 % of control.

**Q.** What about the T/C (dose: 150.0 mg/kg/injection, schedule: Q04DX002 (ip), vehicle: saline with Tween-80) of the same compound?
**A.** Its T/C is 91 % of control.

**Q.** And the T/C (dose: 300.0 mg/kg/injection, schedule: Q04DX002 (ip), vehicle: saline with Tween-80)?
**A.** The T/C was 98 % of control.

**Q.** What does the source list for `CCC1CN2C(=N1)c1ccccc1-c1cc(Cl)ccc12` (centres undefined)?
**A.** T/C (dose: 6.25 mg/kg/injection, schedule: Q01DX009 (ip), vehicle: suspension in saline): 102 % of control; T/C (dose: 10.0 mg/kg/injection, schedule: Q01DX001 (ip), vehicle: Klucel (hydroxypropylcellulose) (HPC)): 103 % of control; T/C (dose: 10.0 mg/kg/injection, schedule: Q01DX009 (ip), vehicle: Klucel (hydroxypropylcellulose) (HPC)): 90 % of control; T/C (dose: 12.5 mg/kg/injection, schedule: Q01DX009 (ip), vehicle: suspension in saline): 102 % of control; T/C (dose: 20.0 mg/kg/injection, schedule: Q01DX001 (ip), vehicle: Klucel (hydroxypropylcellulose) (HPC)): 114 % of control; T/C (dose: 20.0 mg/kg/injection, schedule: Q01DX009 (ip), vehicle: Klucel (hydroxypropylcellulose) (HPC)): 90 % of control; T/C (dose: 20.0 mg/kg/injection, schedule: Q01DX009 (ip), vehicle: saline): 111 % of control; T/C (dose: 20.0 mg/kg/injection, schedule: Q04DX002 (ip), vehicle: saline): 114 % of control; T/C (dose: 20.0 mg/kg/injection, schedule: Q04DX003 (ip), vehicle: Klucel (hydroxypropylcellulose) (HPC)): 88 % of control; T/C (dose: 25.0 mg/kg/injection, schedule: Q01DX009 (ip), vehicle: suspension in saline): 110 % of control; T/C (dose: 40.0 mg/kg/injection, schedule: Q01DX001 (ip), vehicle: Klucel (hydroxypropylcellulose) (HPC)): 108 % of control; T/C (dose: 40.0 mg/kg/injection, schedule: Q04DX002 (ip), vehicle: saline): 118 % of control; T/C (dose: 40.0 mg/kg/injection, schedule: Q04DX003 (ip), vehicle: Klucel (hydroxypropylcellulose) (HPC)): 88 % of control; T/C (dose: 80.0 mg/kg/injection, schedule: Q01DX009 (ip), vehicle: saline): 188 % of control; T/C (dose: 80.0 mg/kg/injection, schedule: Q04DX002 (ip), vehicle: saline): 122 % of control

**Q.** Which T/C [9] does the source give for `Cc1ccc2c(ccc3nnc(C)n32)c1` here?
**A.** The T/C was 109 % of control.

**Q.** And the T/C [10]?
**A.** The T/C was 103 % of control.

**Q.** How did the T/C [9] turn out when `O=C(O)/C=C(\Cl)c1ccccc1` was run?
**A.** The T/C was 112 % of control.

**Q.** What about the T/C [10] of the same compound?
**A.** The T/C was 112 % of control.

**Q.** What about the T/C [11] of the same compound?
**A.** Its T/C is 104 % of control.

**Q.** And the T/C [3]?
**A.** The T/C was 106 % of control.

**Q.** `CC(C)OC(=S)SCC(=O)c1ccc([N+](=O)[O-])cc1` was tested. Which T/C [6] did it give?
**A.** Its T/C is 112 % of control.

**Q.** What about the T/C [7] of the same compound?
**A.** The T/C was 102 % of control.

**Q.** And the T/C [8]?
**A.** Its T/C is 105 % of control.

**Q.** Which results are given for `CCN(C(=O)Nc1ccc(F)c(Cl)c1)c1ccc(Cl)cc1`?
**A.** T/C (dose: 50.0 mg/kg/injection, schedule: Q01DX009 (ip), vehicle: saline with Tween-80): 100 % of control; T/C [4]: 96 % of control; T/C [5]: 96 % of control

**Q.** What does the source list for `O=C1NC(=O)C(F)C(O)N1` (centres undefined)?
**A.** T/C (dose: 5.0 mg/kg/injection, schedule: Q01DX001 (ip), vehicle: saline): 102 % of control; T/C (dose: 10.0 mg/kg/injection, schedule: Q01DX001 (ip), vehicle: saline): 101 % of control; T/C (dose: 20.0 mg/kg/injection, schedule: Q01DX001 (ip), vehicle: saline): 96 % of control; T/C [1]: 101 % of control; T/C (dose: 80.0 mg/kg/injection, schedule: Q01DX001 (ip), vehicle: saline): 108 % of control

**Q.** `CCS(=O)(=O)/C=C/c1cccs1` was tested. Which T/C (dose: 100.0 mg/kg/injection, schedule: Q01DX009 (ip), vehicle: Klucel (hydroxypropylcellulose) (HPC)) did it give?
**A.** Its T/C is 104 % of control.

**Q.** And the T/C (dose: 200.0 mg/kg/injection, schedule: Q01DX009 (ip), vehicle: Klucel (hydroxypropylcellulose) (HPC))?
**A.** Its T/C is 100 % of control.

**Q.** `O=C(OCC(OC(=O)c1ccccc1)C(OC(=O)c1ccccc1)C(OC(=O)c1ccccc1)C(SCc1ccccc1)SCc1ccccc1)c1ccccc1` (centres undefined) was tested. Which T/C (dose: 100.0 mg/kg/injection, schedule: Q01DX001 (ip), vehicle: carboxymethylcellulose (CMC)) did it give?
**A.** The T/C was 101 % of control.

**Q.** What about the T/C (dose: 200.0 mg/kg/injection, schedule: Q01DX001 (ip), vehicle: carboxymethylcellulose (CMC)) of the same compound?
**A.** Its T/C is 97 % of control.

**Q.** What about the T/C (dose: 400.0 mg/kg/injection, schedule: Q01DX001 (ip), vehicle: carboxymethylcellulose (CMC)) of the same compound?
**A.** Its T/C is 95 % of control.
